ChEMBL document CHEMBL1201862, “PubChem BioAssay data set” (2004)
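Cells were grown in 96-well plates and exposed to each compound for 48 hours at five concentrations; endpoints were interpolated linearly between bracketing concentrations, or set to the highest concentration if not reached. Abbreviation: GI50, concentration required for 50% inhibition of growth.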 Calls of active or inactive are those of the source. No stated cut-off is given here; in the data, active = GI50 up to about 1.1 µM and inactive = higher.

Experiments:
Assay in all cases: growth of human tumour cells (NCI), 48 h
U-251 = test system: U-251
LOX IMVI = test system: LOX IMVI
CCRF-CEM = test system: CCRF-CEM
UACC-257 = test system: UACC-257
SNB-78 = test system: SNB-78
SNB-75 = test system: SNB-75
HOP-62 = test system: HOP-62
A549 = test system: A549
A498 = test system: A498
M14 = test system: M14
HOP-18 = test system: HOP-18
RXF 631 = test system: RXF 631
SK-MEL-5 = test system: SK-MEL-5
OVCAR-8 = test system: OVCAR-8
SF-268 = test system: SF-268
NCI-H226 = test system: NCI-H226
UO-31 = test system: UO-31
NCI-H522 = test system: NCI-H522
RXF 393 = test system: RXF 393
HL-60 = test system: HL-60
Malme-3M = test system: Malme-3M
NCI-H23 = test system: NCI-H23
IGROV-1 = test system: IGROV-1
DMS-114 = test system: DMS-114
M19-MEL = test system: M19-MEL
SK-OV-3 = test system: SK-OV-3
OVCAR-4 = test system: OVCAR-4
SF-295 = test system: SF-295
SW-620 = test system: SW-620
UACC-62 = test system: UACC-62
786-0 = test system: 786-0
SF-539 = test system: SF-539
DLD-1 = test system: DLD-1
MOLT-4 = test system: MOLT-4
HCC 2998 = test system: HCC 2998
SNB-19 = test system: SNB-19
KM12 = test system: KM12
HCT-116 = test system: HCT-116
NCI-H460 = test system: NCI-H460
XF498 = test system: XF498
EKVX = test system: EKVX
OVCAR-3 = test system: OVCAR-3
SN12C = test system: SN12C
COLO 205 = test system: COLO 205
KM-20L2 = test system: KM-20L2
HT-29 = test system: HT-29
LXFL 529 = test system: LXFL 529
SK-MEL-28 = test system: SK-MEL-28
TK-10 = test system: TK-10
SR = test system: SR
ACHN = test system: ACHN
K562 = test system: K562
HOP-92 = test system: HOP-92
DMS-273 = test system: DMS-273
CAKI-1 = test system: CAKI-1
HCT-15 = test system: HCT-15

How did the GI50 (U-251) turn out when `COC1(OC)CC2C=C(S(=O)(=O)c3ccccc3)C1N(Cc1ccccc1)C2=O` (configuration not stated) was run?
The GI50 was 34.8 µM (inactive).

What about the GI50 (LOX IMVI) of the same compound?
Its GI50 is 16.1 µM (inactive).

What about the GI50 (CCRF-CEM) of the same compound?
Its GI50 is 16.2 µM (inactive).

And the GI50 (UACC-257)?
The GI50 was 22.6 µM (inactive).

And the GI50 (SNB-78)?
Its GI50 is 21.2 µM (inactive).

And the GI50 (SNB-75)?
The GI50 was 36.5 µM (inactive).

And the GI50 (HOP-62)?
Its GI50 is 97.7 µM (inactive).

What about the GI50 (A549) of the same compound?
Its GI50 is 33 µM (inactive).

And the GI50 (A498)?
Its GI50 is 22.4 µM (inactive).

What about the GI50 (M14) of the same compound?
The GI50 was 18.9 µM (inactive).

And the GI50 (HOP-18)?
The GI50 was > 100 µM (inactive).

What about the GI50 (RXF 631) of the same compound?
Its GI50 is 26.3 µM (inactive).

And the GI50 (SK-MEL-5)?
The GI50 was 32.3 µM (inactive).

And the GI50 (OVCAR-8)?
Its GI50 is 23 µM (inactive).

And the GI50 (SF-268)?
The GI50 was > 100 µM (inactive).

What about the GI50 (NCI-H226) of the same compound?
The GI50 was 29.9 µM (inactive).

What about the GI50 (UO-31) of the same compound?
Its GI50 is 35.5 µM (inactive).

What about the GI50 (NCI-H522) of the same compound?
Its GI50 is 16.4 µM (inactive).

What about the GI50 (RXF 393) of the same compound?
Its GI50 is 17.9 µM (inactive).

And the GI50 (HL-60)?
The GI50 was 16.2 µM (inactive).

And the GI50 (Malme-3M)?
The GI50 was 24.9 µM (inactive).

What about the GI50 (NCI-H23) of the same compound?
The GI50 was 15.2 µM (inactive).

What about the GI50 (IGROV-1) of the same compound?
Its GI50 is 37.2 µM (inactive).

What about the GI50 (DMS-114) of the same compound?
The GI50 was 20.3 µM (inactive).

What about the GI50 (M19-MEL) of the same compound?
The GI50 was 32.4 µM (inactive).

And the GI50 (SK-OV-3)?
The GI50 was 88.1 µM (inactive).

And the GI50 (OVCAR-4)?
Its GI50 is 29.2 µM (inactive).

And the GI50 (SF-295)?
Its GI50 is 50.9 µM (inactive).

And the GI50 (SW-620)?
Its GI50 is 22.6 µM (inactive).

And the GI50 (UACC-62)?
The GI50 was 20.2 µM (inactive).

What about the GI50 (786-0) of the same compound?
The GI50 was 39.4 µM (inactive).

And the GI50 (SF-539)?
Its GI50 is 21 µM (inactive).

What about the GI50 (DLD-1) of the same compound?
Its GI50 is 24.3 µM (inactive).

What about the GI50 (MOLT-4) of the same compound?
Its GI50 is 23.2 µM (inactive).

What about the GI50 (HCC 2998) of the same compound?
The GI50 was 60.3 µM (inactive).

And the GI50 (SNB-19)?
Its GI50 is 39.8 µM (inactive).

What about the GI50 (KM12) of the same compound?
The GI50 was 24.7 µM (inactive).

What about the GI50 (HCT-116) of the same compound?
Its GI50 is 13.4 µM (inactive).

And the GI50 (NCI-H460)?
The GI50 was 29.3 µM (inactive).

What about the GI50 (XF498) of the same compound?
The GI50 was 19.1 µM (inactive).

What about the GI50 (EKVX) of the same compound?
Its GI50 is 91.4 µM (inactive).

What about the GI50 (OVCAR-3) of the same compound?
The GI50 was 17.1 µM (inactive).

And the GI50 (SN12C)?
Its GI50 is 23 µM (inactive).

What about the GI50 (COLO 205) of the same compound?
Its GI50 is 19.9 µM (inactive).

What about the GI50 (KM-20L2) of the same compound?
Its GI50 is 28.9 µM (inactive).

And the GI50 (HT-29)?
The GI50 was 28.1 µM (inactive).

And the GI50 (LXFL 529)?
Its GI50 is 20.3 µM (inactive).

What about the GI50 (SK-MEL-28) of the same compound?
The GI50 was 31 µM (inactive).

And the GI50 (TK-10)?
Its GI50 is 26.6 µM (inactive).

And the GI50 (SR)?
The GI50 was 28.9 µM (inactive).

And the GI50 (ACHN)?
Its GI50 is 41.3 µM (inactive).

What about the GI50 (K562) of the same compound?
The GI50 was 35 µM (inactive).

And the GI50 (HOP-92)?
Its GI50 is 28.3 µM (inactive).

With `COc1ccc2c3c(coc13)C(CCC(=O)O)CC2` (configuration not stated) as the compound, how does the GI50 (U-251) read?
The GI50 was > 100 µM (inactive).

What about the GI50 (LOX IMVI) of the same compound?
The GI50 was > 100 µM (inactive).

And the GI50 (DMS-273)?
Its GI50 is > 100 µM (inactive).

What about the GI50 (UACC-257) of the same compound?
The GI50 was > 100 µM (inactive).

What about the GI50 (SNB-78) of the same compound?
Its GI50 is > 100 µM (inactive).

And the GI50 (SNB-75)?
The GI50 was 56.6 µM (inactive).

What about the GI50 (HOP-62) of the same compound?
The GI50 was > 100 µM (inactive).

What about the GI50 (A549) of the same compound?
The GI50 was > 100 µM (inactive).

And the GI50 (A498)?
Its GI50 is > 100 µM (inactive).

What about the GI50 (M14) of the same compound?
Its GI50 is > 100 µM (inactive).

What about the GI50 (HOP-18) of the same compound?
Its GI50 is 88.5 µM (inactive).

What about the GI50 (RXF 631) of the same compound?
Its GI50 is > 100 µM (inactive).

What about the GI50 (SK-MEL-5) of the same compound?
The GI50 was > 100 µM (inactive).

What about the GI50 (OVCAR-8) of the same compound?
The GI50 was > 100 µM (inactive).

What about the GI50 (CAKI-1) of the same compound?
Its GI50 is 38.7 µM (inactive).

What about the GI50 (RXF 393) of the same compound?
Its GI50 is > 100 µM (inactive).

And the GI50 (NCI-H23)?
The GI50 was > 100 µM (inactive).

And the GI50 (IGROV-1)?
Its GI50 is > 100 µM (inactive).

What about the GI50 (DMS-114) of the same compound?
The GI50 was > 100 µM (inactive).

And the GI50 (M19-MEL)?
The GI50 was > 100 µM (inactive).

And the GI50 (SK-OV-3)?
The GI50 was > 100 µM (inactive).

What about the GI50 (OVCAR-4) of the same compound?
The GI50 was > 100 µM (inactive).

And the GI50 (SF-295)?
The GI50 was > 100 µM (inactive).

What about the GI50 (SW-620) of the same compound?
The GI50 was > 100 µM (inactive).

And the GI50 (UACC-62)?
Its GI50 is > 100 µM (inactive).

What about the GI50 (786-0) of the same compound?
Its GI50 is > 100 µM (inactive).

And the GI50 (SF-539)?
The GI50 was > 100 µM (inactive).

What about the GI50 (DLD-1) of the same compound?
Its GI50 is > 100 µM (inactive).

What about the GI50 (HCC 2998) of the same compound?
The GI50 was > 100 µM (inactive).

What about the GI50 (SNB-19) of the same compound?
Its GI50 is > 100 µM (inactive).

And the GI50 (HCT-116)?
Its GI50 is > 100 µM (inactive).

And the GI50 (NCI-H460)?
Its GI50 is > 100 µM (inactive).

And the GI50 (XF498)?
Its GI50 is 48.3 µM (inactive).

And the GI50 (EKVX)?
The GI50 was > 100 µM (inactive).

And the GI50 (OVCAR-3)?
Its GI50 is > 100 µM (inactive).

And the GI50 (SN12C)?
Its GI50 is > 100 µM (inactive).

And the GI50 (COLO 205)?
The GI50 was > 100 µM (inactive).

And the GI50 (KM-20L2)?
The GI50 was > 100 µM (inactive).

What about the GI50 (HT-29) of the same compound?
The GI50 was > 100 µM (inactive).

And the GI50 (LXFL 529)?
Its GI50 is > 100 µM (inactive).

What about the GI50 (SK-MEL-28) of the same compound?
Its GI50 is > 100 µM (inactive).

What about the GI50 (TK-10) of the same compound?
The GI50 was > 100 µM (inactive).

And the GI50 (ACHN)?
Its GI50 is > 100 µM (inactive).

And the GI50 (HCT-15)?
Its GI50 is > 100 µM.
